The results in this text go back to patent publication EP0430037A2, “Process for producing 2-carbon-substituted carbapenem derivatives” (BANYU PHARMACEUTICAL CO., LTD., priority 1989, dated 1991).

One data set has as its system S. aureus 209P NIHJ JC1. The data set can be described thus: Antibacterial activities in vitro (agar plate dilution method). To be noted: Staphylococcus aureus; Mueller Hinton agar, inoculum size 10⁶ CFU/mℓ, 37°C for 16 hours. Type of data set: cell-based. As to the method:
(1) Antibacterial activities in vitro The antibacterial activities were measured by the following agar plate dilution method. One platinum loopful of each test microorganism incubated overnight in Mueller Hinton broth, was inoculated to Mueller Hinton agar (inoculum size: 10⁶ CFU/mℓ). Such a culture medium contained a test compound in a predetermined concentration.

A further data set deals with S. aureus 4970. The data set can be described thus: Protective effects against experimental infectious disease of mice. To be noted: Staphylococcus aureus, 4970, 96 h; oral administration one hour after inoculation of 5 x 10⁵ cells in 5% mucin; mortality four days later; eight mice per group; read-out: ED₅₀. Type of data set: in vivo, Male mice (ddY). As to the method:
(2) Protective effects against experimental infectious disease of mice
Male mice (ddY) of 4 weeks old having body weights of 20±1 g were employed, and the test was conducted with eight mice per group. Microorganism used: S. aureus 4970
5 x 10⁵ cells of the pathogenic microorganism suspended in 5% mucin were […] injected to each mouse. One hour after the inoculation of the microorganism, the compound of the present invention was orally administered in the form of solutions having various concentrations. Four days later, the mortality of the mice was determined, and the ED₅₀ value was calculated.

Data set [1] can be described thus: Concentration in blood and recovery rate in urine after oral administration (bioassay). To be noted: mouse, 40 mg/kg orally, mice, bioassay with S. lutea PC 11001, Example 26 quantified as its non-ester form (Example 25); for concentration at 0.25 h: read-out: Concentration in blood 0.25 hr later; for concentration at 0.5 h: read-out: Concentration in blood 0.5 hr later. The class given is in vivo, ddY male mice. As to the method:
(3) Concentration in blood and recovery rate in urine
ddY male mice of 4 weeks old
40 mg/kg of the test compound was orally administered to each mouse, and the change with time of the concentration in blood and the recovery rate in urine for from 0 to 6 hours were measured. The quantitative analysis was conducted by a bioassay using S. lutea PC 11001 as the test microorganism. With respect to the compound of Example 26, the quantitative analysis was conducted in the form of its non-ester form i.e. as the compound of Example 25.

As a reminder, the MIC is the lowest concentration that inhibits growth of the organism. `C=C(C)C1=C(C(=O)O)N2C(=O)[C@H]([C@@H](C)O)[C@H]2[C@H]1C` [Example 25, Sodium (1S,5R,6S)-6-((1R)-1-hydroxyethyl)-2-(1-methylvinyl)-1-methylcarbapen-2-em-3-carboxylate] gave an MIC in the data set on S. aureus 209P NIHJ JC1 of 0.05 mg/L. Also, the ED50 in the data set with S. aureus 4970 was 0.34 mg/kg. In addition, in data set [1] (blood), the concentration at 0.25 h amounted to 4.1 µg/mL and the concentration at 0.5 h turned out to be 2.9 µg/mL. The concentration at 1 h in data set [1] (blood, read-out: Concentration in blood 1 hr later) stood at 1.6 µg/mL. Besides, the dose excreted at 6 h in data set [1] (urine, 0-6 hrs) is 1.8%.
With `C=C(C)C1=C(C(=O)OCOC(=O)C(C)(C)C)N2C(=O)[C@H]([C@@H](C)O)[C@H]2[C@H]1C` [Example 26, Pivaloyloxymethyl (1S,5R,6S)-6-((1R)-1-hydroxyethyl)-2-(1-methylvinyl)-1-methylcarbapen-2-em-3-carboxylate], in the data set on S. aureus 4970, the ED50 was 0.36 mg/kg. In data set [1] (blood), the concentration at 0.25 h is 44.9 µg/mL and the concentration at 0.5 h is 29.1 µg/mL.
